Experimental data as given in patent US8263623B2, “Triazol derivatives useful for the treatment of diseases” (Pfizer Inc., priority 2008, dated 2012).

What was measured:
[1] = target: human adrenergic β2 receptor (Homo sapiens, UniProt P07550); assay: hβ2 cAMP assay: whole cell cAMP assay in CHO cells expressing the hβ2 receptor; format: cell-based; conditions: CHO cells recombinantly expressing human β2 receptor; for Emax: agonist efficacy, 100 nM Formoterol control; for EC50: agonist potency
Text: (§1) [formula] where IC50 is the concentration of unlabelled drug which inhibits by 50% the specific radioligand binding. [L] is the free radioligand concentrations and KD and Ki are the equilibrium dissociation constants of the radioligand and unlabelled drug respectively. Functional Assessment of Agonist Potency and Efficacy Using a Whole cell cAMP Assay in CHO Cells Expressing the hβ2 Receptor Cell Culture
CHO (Chinese Hamster Ovary) cells recombinantly expressing the human adrenergic β2 receptor were maintained in growth media composed of F12:DMEM (Gibco 21331-020) containing 10% Foetal Bovine Serum (FBS: Sigma F4135), 10 μg/ml puromycin (Sigma P8833), 0.1 mg/ml Geneticin G418 (Sigma G7034) and 2 mM L-glutamine (Sigma G7513). The cells were kept in sterile conditions at 37° C., in an atmosphere containing 5% CO2.
Cells were harvested for assay when they reached 80-90% confluency using trypsin 0.25% (Sigma T4049) incubated with the cells for 5 min at 37° C. in an atmosphere containing 5% CO2. Detached cells were collected in warmed growth media (composition described above), and re-suspended in assay media (F12:DMEM (Gibco 21331-020) containing 1% Foetal Bovine Serum (FBS: Sigma F4135) and 2 mM L-glutamine (Sigma G7513)) to give a viable cell concentration of 0.25×10^6 cells/ml. 100 μl of this suspension was added to each well of a tissue culture treated 96 well view-plate (PerkinElmer 6005181) and the plate incubated in an atmosphere containing 5% CO2 at 37° C. overnight. The following day, cells were washed (4×200 μl, Skatron Skanstacker 300) with Phosphate Buffered Saline (PBS). The plates were then pat dried and the media replaced with 50 μl PBS plus 0.5 mM isobutylmethylxanthine (IBMX) (Sigma I5879) before returning to the incubator for 30 mins. The PBS plate wash procedure was repeated, followed by the addition of 50 μl PBS plus 0.5 mM IBMX and 50 μl PBS plus 2% DMSO and the plates returned to the incubator for 30 mins. Concentration ranges of test compounds were prepared in PBS containing 2% DMSO. The PBS plate wash procedure was repeated, and then 50 μl PBS plus 0.5 mM IBMX was added to the assay plates, followed by the addition of 50 μl of each compound test concentration to the appropriate well. 50 μl per well of 2% DMSO or 200 nM Formoterol was added to the control wells, giving a final assay concentration of 1% DMSO or 100 nM Formoterol. Plates were returned to the incubator for a further 30 mins. At the end of the incubation period the PBS plate wash procedure was repeated a final time as described above. The plates were pat dried and 30 μl per well PBS added followed by 40 μl per well cAMP II ED/Substrate mix and 40 μl per well cAMP II EA-Ab/lysis mix (DiscoverX 90-0034-03). The plates were then incubated in the dark for a minimum of 4 hours at room temperature. The plates were read using a Fusion plate reader (luminescence protocol, each well read for 1 second). Concentration effect curves were plotted and EC50 & Emax values determined using a 4-parameter sigmoid fit generated using an in-house data analysis programme. Formoterol and salmeterol were run in every assay as reference standards.

[2] = target: human muscarinic M3 receptor (Homo sapiens, UniProt P20309); assay: hM3 competition binding assay (3H-NMS) on CHO cell membranes; conditions: 24 hr at RT, IC50 corrected by Cheng-Prussoff equation
Experimental: Binding Affinity Assessment at the Human Recombinant M3 Muscarinic Receptor
Cell Pellets from CHO (Chinese Hamster Ovary) cells recombinantly expressing the human muscarinic M3 receptor were homogenised in 20 mM HEPES (pH7.4) and centrifuged at 48000×g for 20 min at 4° C. The pellet was re-suspended in buffer and the homogenisation and centrifugation steps repeated. The resulting pellet was re-suspended in 1 ml buffer per 1 ml original packed cell volume and the homogenisation step repeated. Protein estimation was carried out on the suspension and 1 ml aliquots of ˜1 mg/ml frozen at −80° C.
hM3 Competition Binding Assay Protocol
Membranes (5 μg/well) were incubated with ^3H-NMS (at a concentration 5×KD) plus/minus test compound for 24 hr at RT (room temperature) in a 1 ml polystyrene 96-well deep well block. The final assay volume was 200 μl, comprising of: 20 μl plus/minus test compound; 20 μt, ^3H-NMS (Perkin Elmer NEN 636) and 160 μl membrane solution. Total Binding was defined with 0.1% DMSO; Non-Specific Binding was defined with 1 μM Atropine. Assay buffer was 20 mM Hepes (pH 7.4).
Once all assay components were added, plates were covered and incubated at room temperature for 24 hrs with shaking. The assay was terminated by rapidly filtering through GF/B Unifilter plates pre-soaked with 0.5% polyethylenimine, using a Packard filtermate harvester, the filter plate was then washed with 3×1 ml 4° C. assay buffer. The filter plates were dried at 45° C. for 1 hour. The bottoms of the filter plates were sealed and 50 μl/well of Microscint ‘0’ added, the top of the plates were sealed with a Topseal. Following 90 mins, the plates were read on an NXT Topcount (1 minute read time per well).
The resulting data was expressed as a percentage of the specific binding (Specific binding=Total binding−Non-Specific Binding). % specific binding versus test compound concentration was plotted to determine an IC50 from a sigmoid curve using an in-house data analysis programme. IC50 values corrected to Ki values by applying the Cheng-Prussoff equation:
as §1

Chain of human muscarinic M3 receptor (P20309 whole entry): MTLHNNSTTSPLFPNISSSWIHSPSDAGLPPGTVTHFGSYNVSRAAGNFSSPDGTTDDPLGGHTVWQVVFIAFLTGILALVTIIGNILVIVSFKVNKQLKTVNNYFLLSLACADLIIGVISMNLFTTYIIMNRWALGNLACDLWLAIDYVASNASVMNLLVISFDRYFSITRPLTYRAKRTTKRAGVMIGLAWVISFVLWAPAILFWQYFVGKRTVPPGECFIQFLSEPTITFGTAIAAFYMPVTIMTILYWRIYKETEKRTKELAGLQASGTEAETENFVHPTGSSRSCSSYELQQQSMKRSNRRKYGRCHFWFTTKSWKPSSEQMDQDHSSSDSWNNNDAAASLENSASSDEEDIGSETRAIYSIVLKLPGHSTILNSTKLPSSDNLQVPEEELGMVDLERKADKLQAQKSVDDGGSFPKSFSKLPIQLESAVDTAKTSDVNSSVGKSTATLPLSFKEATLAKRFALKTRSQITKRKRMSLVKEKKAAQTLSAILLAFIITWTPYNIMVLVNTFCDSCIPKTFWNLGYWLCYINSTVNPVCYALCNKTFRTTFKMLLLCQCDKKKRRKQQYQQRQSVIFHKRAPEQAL
Chain of human adrenergic β2 receptor (P07550 whole entry): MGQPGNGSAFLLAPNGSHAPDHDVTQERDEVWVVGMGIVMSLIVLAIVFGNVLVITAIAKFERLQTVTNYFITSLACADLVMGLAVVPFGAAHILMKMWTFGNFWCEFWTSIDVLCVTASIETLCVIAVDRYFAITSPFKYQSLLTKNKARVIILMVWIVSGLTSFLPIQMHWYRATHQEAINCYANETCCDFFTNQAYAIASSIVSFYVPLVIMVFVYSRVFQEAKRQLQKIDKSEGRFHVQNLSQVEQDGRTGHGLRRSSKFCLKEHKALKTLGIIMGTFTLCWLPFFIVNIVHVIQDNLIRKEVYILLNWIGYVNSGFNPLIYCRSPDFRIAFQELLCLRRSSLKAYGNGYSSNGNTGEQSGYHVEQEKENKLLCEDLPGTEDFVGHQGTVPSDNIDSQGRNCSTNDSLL

SMILES	Emax [1] [%]	EC50 [1] [nM]	Ki [2] [nM]
O=c1ccc2c([C@@H](O)CNCCc3ccc(CCN4CCC(Cn5cnc([C@](O)(c6ccccc6)C6CCCCC6)n5)CC4)cc3)ccc(O)c2[nH]1 [Example 2, 5-[(1R)-2-{[2-(4-{2-[4-({3-[(R)-cyclohexyl(hydroxy)phenylmethyl]-1H-1,2,4-triazol-1-yl}methyl)piperdin-1-yl]ethyl}phenyl)ethyl]amino}-1-hydroxyethyl]-8-hydroxyquinolin-2(1H)-one]	106	21.6	0.153
O=c1ccc2c([C@@H](O)CNCCCCCCCCCN3CCC(Cn4cnc(C(O)(c5ccccc5)c5ccccc5)n4)CC3)ccc(O)c2[nH]1 [Example 4, 8-hydroxy-5-[(1R)-1-hydroxy-2-({9-[4-({3-[hydroxy(diphenyl)methyl]-1H-1,2,4-triazol-1-yl}methyl)piperdin-1-yl]nonyl}amino)ethyl]quinolin-2(1H)-one]	90	13	0.505
O=c1ccc2c([C@@H](O)CNCCc3ccc(CCN4CCC(Cn5cnc(C(O)(c6ccccc6)c6ccccc6)n5)CC4)cc3)ccc(O)c2[nH]1 [Example 5, 8-hydroxy-5-[(1R)-1-hydroxy-2-{[2-(4-{2-[4-({3-[hydroxy(diphenyl)methyl]-1H-1,2,4-triazol-1-yl}methyl)piperidin-1-yl]ethyl}phenyl)ethyl]amino}ethyl]quinolin-2(1H)-one]	95	116	2.49
O=c1ccc2c([C@@H](O)CNCCCCCCCCCN3CCC(Cn4cnc(C(O)(c5ccccc5)C5CCCCC5)n4)CC3)ccc(O)c2[nH]1 (stereo partly drawn) [Example 3, 5-[(1R)-2-({9-[4-({3-[cyclohexyl(hydroxy)phenylmethyl]-1H-1,2,4-triazol-1-yl}methyl)piperdin-1-yl]nonyl}amino)-1-hydroxyethyl]-8-hydroxyquinolin-2(1H)-one]	91	20.6	0.924
O=c1ccc2c([C@@H](O)CNCCCCCCCCCN3CCC(Cn4cnc([C@](O)(c5ccccc5)C5CCCCC5)n4)CC3)ccc(O)c2[nH]1 [Example 1, 5-[(1R)-2-({9-[4-({3-[(R)-cyclohexyl(hydroxy)phenylmethyl]-1H-1,2,4-triazol-1-yl}methyl)piperidin-1-yl]nonyl}amino)-1-hydroxyethyl]-8-hydroxyquinolin-2(1H)-one]	103	14	0.57
